In patent US20030044946A1 (priority 2001, published 2003):
Like-named read-outs stand apart in the source and are kept apart here.

Assays:
[1] = test system: sod2Δ mutants
[2] = test system: ras2Δ (EG252) cells; conditions: ras2 mutants; paraquat 1 mM, 7-day treatment
[3] = test system: aconitase; assay: aconitase inactivation after treatment of yeast cells; type: cell-based, Saccharomyces cerevisiae; conditions: wild type cells; 1 μM antimycin A or 1 mM paraquat; data not shown
Procedure: Cells were inoculated at an OD600 of 0.1 in SDC medium and harvested at the indicated times. Whole cell extracts were obtained by glass bead lysis under argon in 50 mM Tris 7.2, 150 mM NaCl, 5 mM EDTA, and 0.2 mM PMSF with an equal volume of 0.5 mm acid washed glass beads, and vortexing for 6 cycles of 30 seconds followed by 2 minutes of cooling. After centrifugation, the supernatants were aliquoted, flash frozen, and stored at −70° C. Because of the instability of 4Fe4S clusters in air, the extraction procedures were performed as rapidly as possible, under an inert atmosphere (argon). Furthermore, aliquots kept at −70° C. were only thawed immediately before the assay. Aconitase activity was measured spectrophotometrically as described (S. Melov, et al., Science 289, 1567-9 (2000)). Briefly, the linear absorbance change at 240 nm (cis-aconitate disappearance) was followed in a reaction mixture containing 1 mM cis-aconitate, 0.5 M NaCl, and 0.1 M Tris 7.4. For iron-sulfur cluster reactivation experiments, 1 mM ferric sulfate and 1 mM sodium sulfide (Na2S) was added to the cuvette containing all the reagents required for the aconitase assay. Activity was measured as described above.

[4] = test system: wild type cells (strain DBY746)

Compound | toxicity to sod2Δ mutants ([1]; effect on life span) | initial viability retained after paraquat treatment [2] | effect on aconitase [3] | effect on survival (viability) of wild type cells [4] | toxicity to wild type cells [4] | survival after paraquat treatment ([4]; Saccharomyces cerevisiae) [%] | toxicity to sod2Δ mutants [1]
C[n+]1ccc(-c2cc[n+](C)cc2)cc1 [paraquat] | particularly toxic | over 70% | reversibly inactivates aconitase | early viability loss | toxic | 5 | –
antimycin A | – | – | reversibly inactivates aconitase | early viability loss | toxic | – | particularly toxic
